Assay results taken from PubChem BioAssay (NCI).
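Method: 48-hour compound exposure of cells in 96-well plates, five concentrations, linear interpolation of endpoints. TGI: concentration producing complete growth inhibition.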

How the values were obtained:
Assay in all cases: inhibition of tumour cell growth, NCI panel, 48 h
[1] = system: 786-0 renal
[2] = system: A549 NSCLC
[3] = system: CCRF-CEM leukemia
[4] = system: DU-145 prostate
[5] = system: HCT-116 colon
[6] = system: IGROV1 ovarian
[7] = system: K-562 leukemia
[8] = system: MDA-MB-231 breast
[9] = system: MDA-N
[10] = system: NCI-H226 lung
[11] = system: NCI-H23 lung
[12] = system: OVCAR-3 ovarian
[13] = system: OVCAR-4 ovarian
[14] = system: OVCAR-5 ovarian
[15] = system: RPMI-8226 leukemia
[16] = system: SF-539 CNS
[17] = system: SK-MEL-2 melanoma
[18] = system: SK-MEL-5 melanoma
[19] = system: SK-OV-3 ovarian
[20] = system: SNB-75 CNS

Compound	TGI [1]	TGI [2]	TGI [3]	TGI [4]	TGI [5]	TGI [6]	TGI [7]	TGI [8]	TGI [9]	TGI [10]	TGI [11]	TGI [12]	TGI [13]	TGI [14]	TGI [15]	TGI [16]	TGI [17]	TGI [18]	TGI [19]	TGI [20]
COC(=O)c1cc(=O)n(-c2ccc3nn(C)nc3c2)cc1C(=O)OC	> 100 µM	> 100 µM	> 100 µM	> 100 µM	> 100 µM	> 100 µM	> 100 µM	> 100 µM	> 100 µM	> 100 µM	> 100 µM	> 100 µM	> 100 µM	> 100 µM	> 100 µM	> 100 µM	> 100 µM	> 100 µM	> 100 µM	> 100 µM
O=C(NNC1=NCCCN1)c1ccco1	> 100 µM	> 100 µM	> 100 µM	> 100 µM	> 100 µM	> 100 µM	> 100 µM	> 100 µM	> 100 µM	> 100 µM	> 100 µM	> 100 µM	> 100 µM	> 100 µM	> 100 µM	> 100 µM	> 100 µM	> 100 µM	> 100 µM	> 100 µM
CC(=O)Nc1ccc(C(=O)NN2C(=O)CSC2c2ccc(O)cc2)cc1 (stereo not given)	> 100 µM	> 100 µM	> 100 µM	> 100 µM	> 100 µM	> 100 µM	> 100 µM	> 100 µM	> 100 µM	> 100 µM	> 100 µM	> 100 µM	> 100 µM	> 100 µM	> 100 µM	> 100 µM	> 100 µM	> 100 µM	> 100 µM	> 100 µM
O=C1OC(C2Cc3ccc4c(c3C2=O)CCC4)c2ccccc21 (stereo not given)	> 100 µM	> 100 µM	> 100 µM	> 100 µM	> 100 µM	> 100 µM	> 100 µM	> 100 µM	> 100 µM	83.6 µM	> 100 µM	> 100 µM	> 100 µM	> 100 µM	85.1 µM	> 100 µM	> 100 µM	> 100 µM	> 100 µM	> 100 µM
CCOC(=O)C1(C#N)C(=O)c2cc[n+](CC[n+]3ccc4c(c3)C(=O)C(C#N)(C(=O)OCC)C4=O)cc2C1=O (stereo not given)	> 100 µM	> 100 µM	> 100 µM	> 100 µM	> 100 µM	> 100 µM	> 100 µM	> 100 µM	> 100 µM	> 100 µM	> 100 µM	> 100 µM	> 100 µM	> 100 µM	> 100 µM	> 100 µM	> 100 µM	38.5 µM	> 100 µM	> 100 µM
CC(=O)OCC1OC(N2C(c3ccccc3)=CC(c3ccco3)C(C#N)=C2S)C(OC(C)=O)C(OC(C)=O)C1OC(C)=O (stereo not given)	5.93 µM	> 65.6 µM	> 100 µM	> 88.2 µM	33.2 µM	> 67.1 µM	> 100 µM	8.65 µM	> 53.9 µM	24.3 µM	23.7 µM	18.3 µM	9.16 µM	22 µM	> 45 µM	5.35 µM	65.4 µM	17.9 µM	59 µM	8.9 µM
O=C1/C(=C/c2ccc(O)cc2)CCc2ccc([N+](=O)[O-])cc21	> 100 µM	> 100 µM	> 100 µM	> 100 µM	> 100 µM	> 100 µM	> 100 µM	> 100 µM	> 100 µM	> 92.7 µM	> 100 µM	> 100 µM	> 100 µM	> 100 µM	> 100 µM	> 100 µM	> 100 µM	> 100 µM	> 100 µM	> 100 µM
O=C(O)C1(Cc2ccccc2)Cc2cc3c(cc2C1)CCC3	> 100 µM	> 100 µM	> 100 µM	> 100 µM	> 100 µM	> 100 µM	> 100 µM	> 100 µM	> 100 µM	> 100 µM	> 100 µM	> 100 µM	> 100 µM	> 100 µM	> 100 µM	> 100 µM	> 100 µM	> 100 µM	> 100 µM	> 100 µM
COC(=O)c1ccccc1CC1Cc2cc3c(cc2C1=O)CCC3 (stereo not given)	89.3 µM	72.8 µM	62.7 µM	> 100 µM	29.9 µM	> 100 µM	44.5 µM	80.2 µM	10.7 µM	63.7 µM	75.1 µM	> 76.5 µM	> 93.3 µM	> 90.8 µM	54.5 µM	43.1 µM	19.7 µM	20.9 µM	> 71.8 µM	55.7 µM
O=S1(=O)c2ccccc2C(Nc2ccccc2)N1c1ccccc1 (stereo not given)	> 100 µM	> 100 µM	> 100 µM	> 100 µM	> 100 µM	> 100 µM	> 100 µM	> 100 µM	> 100 µM	> 100 µM	> 100 µM	> 100 µM	> 100 µM	> 100 µM	> 100 µM	> 100 µM	> 100 µM	> 100 µM	> 100 µM	> 100 µM
